{"source": "patent US10301664B2", "about": "“Repurposing non-antimicrobial drugs and clinical molecules to treat bacterial infections” (Purdue Research Foundation, priority 2015, dated 2019)", "key": {"[1]": {"tested_on": "MRSA (23) clinical isolates", "assay": "MIC against Gram +ve clinical isolates: MRSA", "assay_type": "cell-based, S. aureus", "conditions": "for MIC50: MRSA (23)"}, "[2]": {"tested_on": "MRSA USA300", "assay": "Mouse-model of staphylococcal skin infection: bacterial load", "assay_type": "in vivo, BALB/c mice", "conditions": "topical 20 mg of 2% in petroleum jelly, twice a day for 5 days", "protocol": "Auranofin and ebselen were evaluated in a mouse-model of staphylococcal skin infection. Seven groups of BALB/c mice (n=5) were inoculated with MRSA USA300 (4.3×10^9 CFU/ml) intradermally. 48 hours after infection and formation of open wound, four groups were treated topically with 20 mg of 2% Ebselen, 2% Auranofin, 2% mupirocin or 2% […] in petroleum jelly (ointment—skin protectant). Two groups were treated orally with either linezolid or clindamycin (25 mg/kg). The last group received the vehicles alone (petroleum jelly). All groups were treated twice a day for 5 days.\nSince the clinical severity of bacterial skin infections is driven by the excess host pro-inflammatory cytokines rather than by bacterial burden, the recognized anti-inflammatory response of Auranofin and Ebselen combined with the potent antimicrobial, killing intracellular MRSA, and antibiofilm activities, should provide great advantage in the treatment of bacterial skin infection and wound healing. In this Example, we evaluated Auranofin and Ebselen in a mouse-model of staphylococcal skin infection. Seven groups of BALB/c mice (n=5) were inoculated with MRSA USA300 (4.3×10^9 CFU/ml) intradermally. 48 hours after infection and formation of open wound, four groups were treated topically with 20 mg of 2% ebselen, 2% auranofin, 2% mupirocin or 2% […] in petroleum jelly (ointment—skin protectant). […]"}, "[3]": {"conditions": "in vivo; cited from earlier work"}, "[4]": {"tested_on": "S. aureus biofilm", "assay": "Reduction of adherent S. aureus biofilm", "assay_type": "cell-based", "conditions": "compared to linezolid, mupirocin, vancomycin, rifampicin", "from_the_text": "(§1) Biofilms are a major contributing factor to lack of healing of chronic wounds, as the matrix-embedded bacteria are recalcitrant to antibiotics and host immune response, rendering them extremely challenging and costly to treat."}, "[5]": {"tested_on": "intracellular MRSA USA300 in J774A.1 cells", "assay": "Activity against intracellular MRSA in J774A.1 cells", "assay_type": "cell-based", "conditions": "compared to vancomycin and linezolid"}, "[6]": {"tested_on": "multiple MRSA and VRSA strains", "assay": "Synergy with conventional antimicrobials in vitro", "assay_type": "cell-based, S. aureus", "conditions": "most tested conventional antimicrobials, all tested strains (few exceptions such as VRSA5)"}, "[7]": {"tested_on": "MRSA USA300-0114 toxins hla and PVL", "assay": "MRSA toxin production by ELISA", "assay_type": "cell-based, S. aureus", "conditions": "1 hour incubation"}, "[8]": {"tested_on": "MRSA USA300 persister cells tolerant to ciprofloxacin", "assay": "Killing of S. aureus persister cells", "assay_type": "cell-based", "conditions": "added after ciprofloxacin treatment; 48 h"}, "[9]": {"tested_on": "MRSA USA300", "assay": "Non-lethal MRSA infection mice model", "assay_type": "in vivo", "conditions": "two doses oral 0.25 mg/kg", "from_the_text": "(§2) For MRSA systemic infection, neutropenic Female BALB/c mice were inoculated IP with 1×10^9 MRSA USA300."}, "[10]": {"tested_on": "E.. coli O157:H7", "assay": "MIC against G-ve with and without colistin: E. coli O157:H7", "assay_type": "cell-based"}, "[11]": {"tested_on": "VISA and VRSA (14) clinical isolates", "assay": "MIC against Gram +ve clinical isolates: VISA and VRSA", "assay_type": "cell-based, S. aureus"}, "[12]": {"tested_on": "S. epidermidis biofilm", "assay": "Reduction of adherent S. epidermidis biofilm", "assay_type": "cell-based", "conditions": "compared to linezolid, mupirocin, vancomycin, rifampicin", "from_the_text": "as §1"}, "[13]": {"tested_on": "Colistin resistant clinical isolates of P. aeruginosa", "assay": "MIC against G-ve with and without colistin: colistin resistant P. aeruginosa", "assay_type": "cell-based", "conditions": "without colistin"}, "[14]": {"tested_on": "rabbit reticulocyte lysate system (mammalian protein synthesis)", "assay": "Mammalian protein synthesis in rabbit reticulocyte lysate system", "assay_type": "biochemical", "from_the_text": "(IC50) of Auranofin in rabbit reticulocyte extract. […] The results are given as means±SD (data without error bars indicate that the SD is too small to be seen).\n(§3) In this Example, we tested the effects of the two drugs on bacterial, mammalian and mitochondrial protein-synthesis. For bacterial protein-synthesis inhibition, we used E. coli cellular extracts in a transcription and translation assay that monitors protein production via luciferase readout."}, "[15]": {"tested_on": "MRSA USA300", "assay": "Mouse model of MRSA systemic infection (lethal)", "assay_type": "in vivo, BALB/c mice", "conditions": "three doses", "from_the_text": "as §2"}, "[16]": {"tested_on": "S. Typhimurium", "assay": "MIC against G-ve with and without colistin: S. Typhimurium", "assay_type": "cell-based", "conditions": "without colistin"}, "[17]": {"tested_on": "S. aureus", "assay": "Macromolecular synthesis (MMS): incorporation of radioactive precursors", "assay_type": "cell-based", "from_the_text": "In this Example we examined the effect of Auranofin and Ebselen on incorporation of radioactive precursors into macromolecules in S. aureus."}, "[18]": {"tested_on": "VRE (14) clinical isolates", "assay": "MIC against Gram +ve clinical isolates: VRE", "assay_type": "cell-based, enterococcus"}, "[19]": {"tested_on": "pro-inflammatory cytokines (TNF-α, IL-6, IL-1β, MCP-1)", "assay": "Cytokines production in MRSA skin infection in mice", "assay_type": "in vivo", "conditions": "topical application", "from_the_text": "Each points represents single mice and each group has 5 mice. P values of (*P≤0.05) (**P≤0.01) are considered as significant. We investigated the immunomodulatory activity of Auranofin and ebselen in a topical application against MRSA skin infection in mice.\nIn this Example, we investigated the immunomodulatory activity of Auranofin and Ebselen in a topical application against MRSA skin infection in mice. […] These cytokines are thought to play a greater role in the severity of S. aureus skin infections more than the size of the bacterial burden and can lead to an infection persisting for a longer time period. Therefore, the ability of Auranofin and Ebselen reduces the production of these cytokines in the infected mice, indicating the clinical relevance of these drugs if used for antimicrobial treatment."}, "[20]": {"tested_on": "K. pneumonia", "assay": "MIC against G-ve with and without colistin: K. pneumonia", "assay_type": "cell-based"}, "[21]": {"tested_on": "A. baumannii", "assay": "MIC against G-ve with and without colistin: A. baumannii", "assay_type": "cell-based"}, "[22]": {"tested_on": "P. aeruginosa", "assay": "MIC against G-ve with and without colistin: P. aeruginosa", "assay_type": "cell-based"}, "[23]": {"tested_on": "E. coli cellular extracts (bacterial translation process)", "assay": "Bacterial transcription and translation assay, luciferase readout", "assay_type": "biochemical", "from_the_text": "For bacterial protein-synthesis inhibition, E. coli cellular extracts in a transcription and translation assay were used to monitor protein production via luciferase readout.\nas §3"}, "[24]": {"conditions": "concentrations significantly below the MIC"}}, "data": [{"molecule": "CC(=O)OC[C@H]1O[C@@H]([S-])[C@H](OC(C)=O)[C@@H](OC(C)=O)[C@@H]1OC(C)=O.CCP(CC)CC.[Au+]", "note": "[Auranofin]", "values": [{"measurement": "MIC50", "setting": "[1]; first column per drug", "result": 0.062, "unit": "µg/mL"}, {"measurement": "MIC50", "setting": "[1]; second column per drug", "result": 0.125, "unit": "µg/mL"}, {"measurement": "MIC90 (MICs at which 90% of MRSA isolates were inhibited)", "setting": "[1]; MRSA isolates", "result": 0.125, "unit": "µg/mL"}, {"measurement": "bacterial load in MRSA skin lesions", "setting": "[2]", "result": "significantly reduced the bacterial load"}, {"measurement": "clinically achievable blood concentration", "setting": "[3]", "result": 2.37, "unit": "µg/mL"}, {"measurement": "reduction of adherent biofilm", "setting": "[4]", "result": "superior in reducing adherent biofilms"}, {"measurement": "reduction of intracellular MRSA", "setting": "[5]", "result": "superior in reducing intracellular MRSA"}, {"measurement": "relationship with conventional antimicrobials in vitro", "setting": "[6]", "result": "synergistic relationship"}, {"measurement": "production of toxin PVL", "setting": "[7]", "result": "significantly suppressed toxin production"}, {"measurement": "production of toxin hla", "setting": "[7]", "result": "significantly suppressed toxin production"}, {"measurement": "effect on number of planktonic persister cells", "setting": "[8]", "result": "complete eradication of planktonic persister cells"}, {"measurement": "bacterial load in the liver and spleen", "setting": "[9]", "result": "significantly reduced the bacterial load"}, {"measurement": "MIC, colistin (+)", "setting": "[10]; E. coli O157:H7, with sub-inhibitory colistin 0.0625 μg/ml", "result": 0.0625, "unit": "µg/mL"}, {"measurement": "MIC, colistin (−)", "setting": "[10]; E. coli O157:H7, without colistin", "result": 64, "unit": "µg/mL"}, {"measurement": "MIC50", "setting": "[11]; first column per drug", "result": 0.062, "unit": "µg/mL"}, {"measurement": "MIC50", "setting": "[11]; second column per drug", "result": 0.062, "unit": "µg/mL"}, {"measurement": "reduction of adherent biofilm", "setting": "[12]", "result": "superior in reducing adherent biofilms"}, {"measurement": "MIC, colistin (−)", "setting": "[13]", "result": ">256", "unit": "µg/mL"}, {"measurement": "inhibition of translation in mammalian protein synthesis", "setting": "[14]", "result": "did not inhibit translation"}, {"measurement": "mice survival", "setting": "[15]; oral 0.125 mg/kg once daily", "result": 40, "unit": "%"}, {"measurement": "mice survival", "setting": "[15]; oral 0.25 mg/kg once daily", "result": 80, "unit": "%"}, {"measurement": "MIC, colistin (−)", "setting": "[16]", "result": 128, "unit": "µg/mL"}, {"measurement": "DNA synthesis inhibition", "setting": "[17]; [24]", "result": "clear dose-dependent disruption"}, {"measurement": "cell wall synthesis inhibition", "setting": "[17]; [24]", "result": "clear dose-dependent disruption"}, {"measurement": "protein synthesis inhibition", "setting": "[17]; [24]", "result": "clear dose-dependent disruption"}, {"measurement": "effect on RNA synthesis", "setting": "[17]; up to 4×MIC", "result": "no significant effect"}, {"measurement": "effect on lipid synthesis", "setting": "[17]; up to 4×MIC", "result": "no significant effect"}, {"measurement": "MIC50", "setting": "[18]; first column per drug", "result": 0.125, "unit": "µg/mL"}, {"measurement": "MIC50", "setting": "[18]; second column per drug", "result": 0.125, "unit": "µg/mL"}, {"measurement": "level of IL-6", "setting": "[19]", "result": "significantly reduced"}, {"measurement": "level of TNF-α", "setting": "[19]", "result": "significantly reduced"}, {"measurement": "level of IL-1β", "setting": "[19]; data not shown", "result": "significantly reduced"}, {"measurement": "level of MCP-1", "setting": "[19]; data not shown", "result": "significantly reduced"}, {"measurement": "MIC, colistin (+)", "setting": "[20]; with sub-inhibitory colistin 0.125 μg/ml", "result": 0.125, "unit": "µg/mL"}, {"measurement": "MIC, colistin (−)", "setting": "[20]; without colistin", "result": 256, "unit": "µg/mL"}, {"measurement": "MIC, colistin (+)", "setting": "[21]; with sub-inhibitory colistin 0.0625 μg/ml", "result": 0.25, "unit": "µg/mL"}, {"measurement": "MIC, colistin (−)", "setting": "[21]; without colistin", "result": 16, "unit": "µg/mL"}, {"measurement": "MIC, colistin (+)", "setting": "[22]; with sub-inhibitory colistin 0.25 μg/ml", "result": 0.0312, "unit": "µg/mL"}, {"measurement": "MIC, colistin (−)", "setting": "[22]; without colistin", "result": 256, "unit": "µg/mL"}, {"measurement": "IC50 of bacterial translation", "setting": "[23]", "result": 0.038, "unit": "µg/mL"}]}]}
